Columns and labels:
AMPA = assay: Binding AMPA (ag); parameters: species or system rat
Description: (§1) Radioligand binding assay methods utilized to measure the activity of compounds of the invention will be familiar to those skilled in the art. In each assay case, the assay components such as, for example, the cell-type, ligand, reference compound and the like, will be familiar to practitioners of such an assay.
(§2) Analysis and Expression of Results: Compounds of the invention were tested in the biochemical assays and percent inhibition of specific binding was determined. The specific ligand binding to the receptors is defined as the difference between the total binding and the nonspecific binding determined in the presence of an excess of unlabelled ligand. The results are expressed as a percent inhibition of control specific binding (100−((measured specific binding/control specific binding)×100)) obtained in the presence of test compounds.

PDE3A (h) = target: T1, PDE3A (h) (Homo sapiens, UniProt Q14432); assay: Enzyme assay PDE3A (h); format: biochemical; conditions: read-out: % Inhibition of Control Values @ 10 μM
T1 construct: host or cells: Sf9 cells
T1 sequence (Q14432 whole entry): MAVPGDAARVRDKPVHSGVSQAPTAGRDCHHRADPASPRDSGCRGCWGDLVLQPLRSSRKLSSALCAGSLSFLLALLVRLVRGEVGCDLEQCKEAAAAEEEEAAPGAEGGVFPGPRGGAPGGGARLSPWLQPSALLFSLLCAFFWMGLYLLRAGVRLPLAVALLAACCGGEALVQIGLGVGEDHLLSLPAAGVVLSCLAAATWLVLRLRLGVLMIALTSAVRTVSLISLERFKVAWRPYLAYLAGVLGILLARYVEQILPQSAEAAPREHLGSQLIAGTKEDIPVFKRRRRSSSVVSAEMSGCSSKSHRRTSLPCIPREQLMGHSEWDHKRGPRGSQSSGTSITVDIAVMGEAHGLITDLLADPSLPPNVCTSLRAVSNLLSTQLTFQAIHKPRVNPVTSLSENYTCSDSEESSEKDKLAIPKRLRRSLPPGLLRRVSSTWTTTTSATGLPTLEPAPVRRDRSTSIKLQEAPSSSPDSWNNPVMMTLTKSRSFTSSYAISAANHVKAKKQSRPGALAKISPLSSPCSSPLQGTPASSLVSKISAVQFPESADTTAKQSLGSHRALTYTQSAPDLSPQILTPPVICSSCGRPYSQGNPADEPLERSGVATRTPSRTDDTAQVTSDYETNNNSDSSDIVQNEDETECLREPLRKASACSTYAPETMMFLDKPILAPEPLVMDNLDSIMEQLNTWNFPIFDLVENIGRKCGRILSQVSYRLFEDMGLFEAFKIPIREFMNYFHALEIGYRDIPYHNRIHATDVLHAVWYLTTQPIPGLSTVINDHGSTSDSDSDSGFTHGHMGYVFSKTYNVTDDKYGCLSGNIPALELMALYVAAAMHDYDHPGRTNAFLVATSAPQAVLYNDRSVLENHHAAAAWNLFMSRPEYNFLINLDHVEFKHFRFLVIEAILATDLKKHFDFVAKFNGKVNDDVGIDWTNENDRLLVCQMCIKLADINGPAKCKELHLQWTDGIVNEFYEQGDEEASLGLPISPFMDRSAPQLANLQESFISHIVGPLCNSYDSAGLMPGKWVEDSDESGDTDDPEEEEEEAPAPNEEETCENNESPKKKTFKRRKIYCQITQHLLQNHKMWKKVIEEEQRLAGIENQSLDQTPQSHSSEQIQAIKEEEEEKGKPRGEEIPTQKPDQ
Text: (§3) The enzyme assays provided below will be familiar to those skilled in the art.
(§4) Analysis and Expression of Results: The results are expressed as a percent of control specific activity ((measured specific activity/control specific activity)×100) obtained in the presence of the test compounds.

BLT1 (LTB4) (h) = target: T2, BLT1 (LTB4) (h) (Homo sapiens, UniProt Q15722); assay: Binding BLT1 (LTB4) (h) (ag); conditions: read-out: % Inhibition of Control Specific Binding @ 10 μM
T2 construct: expressed in transfected cells; host or cells: CHO cells
T2 sequence (Q15722 whole entry): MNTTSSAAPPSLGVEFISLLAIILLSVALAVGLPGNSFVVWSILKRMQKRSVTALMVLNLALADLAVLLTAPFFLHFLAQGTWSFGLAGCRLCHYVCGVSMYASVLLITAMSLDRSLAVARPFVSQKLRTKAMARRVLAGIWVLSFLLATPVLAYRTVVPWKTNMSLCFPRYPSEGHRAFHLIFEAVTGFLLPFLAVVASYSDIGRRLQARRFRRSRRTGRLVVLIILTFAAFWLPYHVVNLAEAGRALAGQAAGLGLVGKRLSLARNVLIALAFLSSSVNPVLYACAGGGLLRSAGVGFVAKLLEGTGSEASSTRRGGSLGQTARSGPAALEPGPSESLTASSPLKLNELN
Description: as §1, §2

Adrenergic α1 (ns) = assay: Binding α1 (ns) (aa); parameters: species or system rat
Description: as §1, §2

GnRH (LH-RH) = target: T3, GnRH (LH-RH) (Rattus norvegicus, UniProt P30969); assay: Binding GnRH (LH-RH) (ag); conditions: read-out: % Inhibition of Control Specific Binding @ 10 μM
T3 construct: rat pituitary gland; from tissue; host or cells: rat pituitary gland
T3 sequence (P30969 1-327): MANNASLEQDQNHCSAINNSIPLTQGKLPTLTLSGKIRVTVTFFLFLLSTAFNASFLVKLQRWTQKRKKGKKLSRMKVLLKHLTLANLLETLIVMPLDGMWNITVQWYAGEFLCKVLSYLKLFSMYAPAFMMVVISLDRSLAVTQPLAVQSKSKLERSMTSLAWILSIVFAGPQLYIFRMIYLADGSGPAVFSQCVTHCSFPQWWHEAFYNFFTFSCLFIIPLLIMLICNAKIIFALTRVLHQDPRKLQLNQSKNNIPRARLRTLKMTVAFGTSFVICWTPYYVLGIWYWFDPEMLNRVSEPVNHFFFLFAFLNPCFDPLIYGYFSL
Description: as §1, §2

acetylcholinesterase (h) = target: T4, acetylcholinesterase (h) (Homo sapiens, UniProt P22303); assay: Enzyme assay acetylcholinesterase (h); format: biochemical; conditions: read-out: % Inhibition of Control Values @ 10 μM
T4 construct: host or cells: HEK-293 cells
T4 sequence (P22303 32-614): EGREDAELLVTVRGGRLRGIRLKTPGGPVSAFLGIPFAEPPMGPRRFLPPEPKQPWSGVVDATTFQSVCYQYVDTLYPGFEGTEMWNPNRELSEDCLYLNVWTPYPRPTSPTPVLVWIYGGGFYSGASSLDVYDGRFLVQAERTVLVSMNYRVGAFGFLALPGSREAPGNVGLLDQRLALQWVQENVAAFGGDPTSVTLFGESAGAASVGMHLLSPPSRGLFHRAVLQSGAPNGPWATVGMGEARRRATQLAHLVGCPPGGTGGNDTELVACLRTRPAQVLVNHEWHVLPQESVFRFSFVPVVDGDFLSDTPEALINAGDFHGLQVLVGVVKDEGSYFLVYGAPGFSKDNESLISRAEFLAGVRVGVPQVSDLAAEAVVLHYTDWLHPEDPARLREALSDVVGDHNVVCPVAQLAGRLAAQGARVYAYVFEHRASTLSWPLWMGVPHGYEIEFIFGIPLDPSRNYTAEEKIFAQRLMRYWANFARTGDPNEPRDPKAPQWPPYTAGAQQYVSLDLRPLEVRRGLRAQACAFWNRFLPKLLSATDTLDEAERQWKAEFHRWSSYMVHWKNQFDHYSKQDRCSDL
Text: as §3, §4

[1] = target: T5, human GABAA α1β3 receptor (Homo sapiens, UniProt P14867+P28472); assay: cell-based; conditions: for inhibition at 100 µM: read-out: α1β3 GABAA % Inhibition @ 100 μM; for IC50: α1β3 GABAA IC50 (μM)
T5 construct: expressed in transfected cells; host or cells: Xenopus laevis oocytes, cDNA injection
T5 sequence (P14867 28-456): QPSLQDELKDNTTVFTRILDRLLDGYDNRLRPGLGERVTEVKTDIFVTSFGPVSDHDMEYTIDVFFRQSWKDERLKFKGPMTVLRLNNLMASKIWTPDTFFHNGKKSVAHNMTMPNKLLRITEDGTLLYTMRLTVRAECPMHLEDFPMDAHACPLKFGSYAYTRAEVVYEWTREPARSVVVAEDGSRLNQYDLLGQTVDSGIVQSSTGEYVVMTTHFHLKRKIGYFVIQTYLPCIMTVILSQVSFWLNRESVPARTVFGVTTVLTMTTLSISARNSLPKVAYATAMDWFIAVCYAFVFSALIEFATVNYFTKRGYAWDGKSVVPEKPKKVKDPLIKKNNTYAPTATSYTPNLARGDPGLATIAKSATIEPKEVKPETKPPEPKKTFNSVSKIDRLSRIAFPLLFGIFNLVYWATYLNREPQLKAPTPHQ
T5 sequence (P28472 26-473): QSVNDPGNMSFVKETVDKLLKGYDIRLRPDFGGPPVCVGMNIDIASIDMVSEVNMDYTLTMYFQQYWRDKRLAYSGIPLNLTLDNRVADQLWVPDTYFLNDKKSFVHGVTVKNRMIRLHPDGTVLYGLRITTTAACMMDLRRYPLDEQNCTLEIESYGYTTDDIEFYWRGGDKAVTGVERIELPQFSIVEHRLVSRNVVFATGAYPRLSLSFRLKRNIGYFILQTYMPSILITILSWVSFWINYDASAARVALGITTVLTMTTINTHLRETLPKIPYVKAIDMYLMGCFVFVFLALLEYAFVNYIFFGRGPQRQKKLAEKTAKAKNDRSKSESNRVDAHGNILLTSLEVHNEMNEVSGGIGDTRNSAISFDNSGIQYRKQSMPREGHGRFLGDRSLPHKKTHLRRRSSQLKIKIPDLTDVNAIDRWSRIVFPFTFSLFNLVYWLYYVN

Cannabinoid CB1 (h) = target: T6, Cannabinoid CB1 (h) (Homo sapiens, UniProt P21554); assay: Binding CB1 (h) (ag); conditions: read-out: % Inhibition of Control Specific Binding @ 10 μM
T6 construct: expressed in transfected cells; host or cells: CHO cells
T6 sequence (P21554 whole entry): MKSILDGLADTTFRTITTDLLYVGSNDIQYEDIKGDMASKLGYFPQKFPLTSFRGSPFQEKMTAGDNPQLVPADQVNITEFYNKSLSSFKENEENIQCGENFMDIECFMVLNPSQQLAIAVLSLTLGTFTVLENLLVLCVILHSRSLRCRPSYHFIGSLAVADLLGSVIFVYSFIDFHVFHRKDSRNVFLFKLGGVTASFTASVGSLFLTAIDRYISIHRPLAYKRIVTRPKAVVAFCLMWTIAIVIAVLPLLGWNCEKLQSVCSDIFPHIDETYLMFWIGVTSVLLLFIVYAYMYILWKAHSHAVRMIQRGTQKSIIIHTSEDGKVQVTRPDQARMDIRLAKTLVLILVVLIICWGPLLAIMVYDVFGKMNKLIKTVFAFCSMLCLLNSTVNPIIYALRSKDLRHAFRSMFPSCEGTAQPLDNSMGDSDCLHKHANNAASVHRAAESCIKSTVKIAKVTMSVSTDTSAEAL
Description: as §1, §2

Histamine H3 (h) = target: T7, Histamine H3 (h) (Homo sapiens, UniProt Q9Y5N1); assay: Binding H3 (h) (ag); conditions: read-out: % Inhibition of Control Specific Binding @ 10 μM
T7 construct: expressed in transfected cells; host or cells: CHO cells
T7 sequence (Q9Y5N1 whole entry): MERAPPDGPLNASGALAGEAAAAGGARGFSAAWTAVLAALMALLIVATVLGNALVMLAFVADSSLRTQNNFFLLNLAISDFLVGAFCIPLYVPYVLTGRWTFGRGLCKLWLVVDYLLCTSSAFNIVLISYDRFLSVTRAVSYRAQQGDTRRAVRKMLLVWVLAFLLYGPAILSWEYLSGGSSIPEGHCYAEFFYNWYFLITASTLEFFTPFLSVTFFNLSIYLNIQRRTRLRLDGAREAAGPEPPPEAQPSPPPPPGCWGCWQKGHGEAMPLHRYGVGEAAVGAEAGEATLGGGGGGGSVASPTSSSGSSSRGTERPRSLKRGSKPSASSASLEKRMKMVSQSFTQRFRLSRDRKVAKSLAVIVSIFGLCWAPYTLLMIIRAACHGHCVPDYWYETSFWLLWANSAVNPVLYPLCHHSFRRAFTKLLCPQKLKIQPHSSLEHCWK
Description: as §1, §2

NMDA = assay: Binding NMDA (aa); parameters: species or system rat
Description: as §1, §2

Dopamine D2S (h) = target: T8, Dopamine D2S (h) (Homo sapiens, UniProt P14416); assay: Binding D2S (h) (aa); conditions: read-out: % Inhibition of Control Specific Binding @ 10 μM
T8 construct: expressed in transfected cells; host or cells: HEK-293 cells
T8 sequence (P14416 1-414 isoform P14416-2): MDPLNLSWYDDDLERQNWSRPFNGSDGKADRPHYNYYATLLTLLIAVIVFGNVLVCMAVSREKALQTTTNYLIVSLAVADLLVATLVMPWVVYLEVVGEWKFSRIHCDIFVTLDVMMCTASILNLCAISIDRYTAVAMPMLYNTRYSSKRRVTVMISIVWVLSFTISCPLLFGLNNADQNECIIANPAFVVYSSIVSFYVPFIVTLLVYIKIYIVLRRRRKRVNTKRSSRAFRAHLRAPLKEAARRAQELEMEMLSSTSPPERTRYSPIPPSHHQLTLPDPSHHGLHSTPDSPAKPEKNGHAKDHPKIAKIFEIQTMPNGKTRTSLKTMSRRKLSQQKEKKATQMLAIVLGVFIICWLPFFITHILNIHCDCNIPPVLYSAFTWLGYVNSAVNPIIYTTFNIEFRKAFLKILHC
Description: as §1, §2

opioid (ns) = assay: Binding opioid (ns) (aa); parameters: species or system rat
Description: as §1, §2

Endothelin ETB (h) = target: T9, Endothelin ETB (h) (Homo sapiens, UniProt P24530); assay: Binding ETB (h) (ag); conditions: read-out: % Inhibition of Control Specific Binding @ 10 μM
T9 construct: expressed in transfected cells; host or cells: CHO cells
T9 sequence (P24530 27-442): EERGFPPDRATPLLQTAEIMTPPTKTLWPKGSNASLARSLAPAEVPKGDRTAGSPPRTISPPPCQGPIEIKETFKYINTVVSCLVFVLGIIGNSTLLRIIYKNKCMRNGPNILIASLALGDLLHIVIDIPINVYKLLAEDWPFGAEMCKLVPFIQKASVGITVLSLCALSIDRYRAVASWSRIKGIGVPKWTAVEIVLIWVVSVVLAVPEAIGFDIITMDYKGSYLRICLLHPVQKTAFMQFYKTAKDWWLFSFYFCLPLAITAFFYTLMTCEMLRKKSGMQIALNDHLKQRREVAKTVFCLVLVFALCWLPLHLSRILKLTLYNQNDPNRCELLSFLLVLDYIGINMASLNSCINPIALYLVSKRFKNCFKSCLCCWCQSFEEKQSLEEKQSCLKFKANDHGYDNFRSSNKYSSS
Description: as §1, §2

Row | Compound | % Inhibition of Control Specific Binding @ 10 μM (AMPA) | inhibition at 10 µM (PDE3A (h)) | inhibition at 10 µM (BLT1 (LTB4) (h)) | % Inhibition of Control Specific Binding @ 10 μM (Adrenergic α1 (ns)) | inhibition at 10 µM (GnRH (LH-RH)) | inhibition at 10 µM (acetylcholinesterase (h)) | inhibition at 100 µM [1] | IC50 [1] | inhibition at 10 µM (Cannabinoid CB1 (h)) | inhibition at 10 µM (Histamine H3 (h)) | % Inhibition of Control Specific Binding @ 10 μM (NMDA) | inhibition at 10 µM (Dopamine D2S (h)) | % Inhibition of Control Specific Binding @ 10 μM (opioid (ns)) | inhibition at 10 µM (Endothelin ETB (h)) | inhibition achieved at the highest concentration [1]
1 | CC1(C)C(=O)N(c2ccc(C#N)c(C(F)(F)F)c2)C(=O)N1c1ccc(C(N)=O)c(F)c1 [(MIII), 4-(3-(4-cyano-3-(trifluoromethyl)phenyl)-5,5-dimethyl-2,4-dioxoimidazolidin-1-yl)-2-fluorobenzamide] | −2% | 4% | -4% | −5% | 5% | -1% | 57% | 4 ± 3.15 µM | 6% | -13% | 0% | -22% | −15% | 0% | 
2 | CC1(C)C(=O)N(c2ccc(C#N)c(C(F)(F)F)c2)C(=S)N1c1ccc(C(=O)O)c(F)c1 [(MI), 4-(3-(4-cyano-3-(trifluoromethyl)phenyl)-5,5-dimethyl-4-oxo-2-thioxoimidazolidin-1-yl)-2-fluorobenzoic acid] | 1% | 3% | -15% | −4% | -21% | 51% | 90% | 20.7 ± 6 µM | -20% | -3% | 2% | -16% | −6% | -7% | 75±18.4%
3 | CNC(=O)c1ccc(N2C(=O)N(c3ccc(C#N)c(C(F)(F)F)c3)C(=O)C2(C)C)cc1F [(MIV), 4-(3-(4-cyano-3-(trifluoromethyl)phenyl)-5,5-dimethyl-2,4-dioxoimidazolidin-1-yl)-2-fluoro-N-methylbenzamide] | −4% | 2% | -6% | −3% | 0% | 23% | 78% |  | 4% | -4% | −41% | -17% | −10% | -3% | 
4 | CC1(C)C(=O)N(c2ccc(C#N)c(C(F)(F)F)c2)C(=S)N1c1ccc(C(N)=O)c(F)c1 [(MII), 4-(3-(4-Cyano-3-(trifluoromethyl)phenyl)-5,5-dimethyl-4-oxo-2-thioxoimidazolidin-1-yl)-2-fluorobenzamide] | −10% | 0% | -8% | −7% | -51% | 9% | 88% |  | 11% | -2% | 5% | -8% | −14% | -4% | 80±10%
